Source: PubChem BioAssay (NCI)
Where “and” joins values, the source holds several entries; their conditions need not be identical. Equal entries are not always repeated.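 Assay format: 96-well plates, 48-hour exposure. GI50 is the concentration that inhibits growth by half. TGI denotes the concentration required for complete inhibition of growth.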

Legend:
Experiment in all cases: NCI anticancer screen, dose series, 48 h
[1] = tested on: A498 renal
[2] = tested on: HT29 colon
[3] = tested on: IGROV1 ovarian
[4] = tested on: K-562 leukemia
[5] = tested on: M14 melanoma
[6] = tested on: MALME-3M melanoma
[7] = tested on: MCF7 breast
[8] = tested on: MDA-MB-435
[9] = tested on: NCI-H522 lung
[10] = tested on: TK-10 renal

SMILES | GI50 [1] | TGI [1] | GI50 [2] | TGI [2] | GI50 [3] | TGI [3] | GI50 [4] | TGI [4] | GI50 [5] | TGI [5] | GI50 [6] | TGI [6] | GI50 [7] | TGI [7] | GI50 [8] | TGI [8] | GI50 [9] | TGI [9] | GI50 [10] | TGI [10]
CNC(=O)c1cc(Oc2ccc3nc(NC(=O)Nc4ccc(CN5CCOCC5)c(C(F)(F)F)c4)sc3c2)ccn1 | 1.9 µM | 4.05 µM | 2.14 µM | 5.5 µM | 2.77 µM | 10.5 µM | 1.53 µM | > 100 µM | 2.48 µM | 6.53 µM | 1.44 µM | 3.98 µM | 1.75 µM | 4.63 µM | 1.83 µM | 4.38 µM | 1.97 µM | 8.36 µM | 4.45 µM | 14.7 µM
Oc1ccc(NC(=S)Nc2ccccc2)cc1 | > 100 µM | > 100 µM | > 100 µM | > 100 µM | > 100 µM | > 100 µM | > 100 µM | > 100 µM | > 100 µM | > 100 µM | > 100 µM | > 100 µM | > 100 µM | > 100 µM | > 100 µM | > 100 µM | > 100 µM | > 100 µM | > 100 µM | > 100 µM
CCCCCC/C=C/C#CCCCCCCCC(=O)O | – | > 100 µM | – | > 100 µM | – | > 100 µM | – | > 100 µM | – | > 100 µM | – | > 100 µM | – | > 100 µM | – | > 100 µM | – | > 100 µM | – | > 100 µM
Cc1cc(S(=O)(=O)/N=C(\N)Nc2cccc(O)c2)c(SCc2ccccc2)cc1Cl | 17.8 µM | 35.7 µM | 20.6 µM | 43.9 µM | 17.5 µM | 64.8 µM | 8.28 µM | > 100 µM | 11.1 µM | 26.7 µM | 27.9 µM | 63.9 µM | 11.5 µM | 78.9 µM | 14.2 µM | 32.5 µM | 13.9 µM | 41.8 µM | 21.2 µM | 49.5 µM
CN(C)c1ccc(/C=C/C(=O)c2ccc(Nc3nc(Nc4ccc(F)cc4)nc(Nc4ccc(F)cc4)n3)cc2)cc1 | 13 µM | 30.8 µM | 15.5 µM | 66.6 µM | 16.7 µM | 45 µM | 12.7 µM | > 100 µM | 11.2 µM | 34.6 µM | 19.1 µM | 78.9 µM | 17.6 µM | > 100 µM | 3.49 µM | 25.4 µM | 16.2 µM | 58.4 µM | 28.7 µM | > 100 µM
Clc1ccc(-c2cc(-c3ccccc3)nc(N3CCN(CCCNc4ccnc5cc(Cl)ccc45)CC3)n2)cc1 | 1.48 µM | 2.81 µM | 0.464 µM | 1.76 µM | 1.45 µM | 2.89 µM | 0.461 µM | 2.31 µM | 1.87 µM | 3.53 µM | 1.81 µM | 3.35 µM | 1.63 µM | 3.81 µM | 1.73 µM | 3.16 µM | 1.78 µM | 3.54 µM | 1.75 µM | 3.26 µM
C[C@@H](Nc1nc(N[C@H](C)C(F)(F)F)nc(-c2cccc(Cl)n2)n1)C(F)(F)F | 29.9 µM | 99.7 µM | > 100 µM | > 100 µM | 52.5 µM | > 100 µM | > 100 µM | > 100 µM | > 100 µM | > 100 µM | 60.2 µM | > 100 µM | 50.6 µM | > 100 µM | > 100 µM | > 100 µM | 30 µM | > 100 µM | 39.9 µM | > 100 µM
COc1cc2c(Oc3ccc(NC(=O)C4(C(=O)Nc5ccc(F)cc5)CC4)cc3F)ccnc2cc1OCCCN1CCOCC1 | < 0.0462 µM and 0.383 µM | 1.24 µM and 1.7 µM | 0.387 µM | 1.8 µM | 1.31 µM and 0.645 µM | 8.49 µM and 2.74 µM | 0.102 µM and 0.15 µM | 1.78 µM and 1.33 µM | 0.479 µM and 0.54 µM | 1.83 µM and 1.96 µM | 0.635 µM and 0.571 µM | 2.51 µM and 2.05 µM | 0.515 µM and 0.546 µM | 2.03 µM and 3 µM | 0.694 µM | 2.39 µM | 0.983 µM | 2.87 µM | 1.03 µM and 1.36 µM | 2.57 µM and 4.42 µM
Nc1nc(=O)n(C2CC(O)C(CO)O2)cc1F (centres undefined) | 0.046 µM | > 100 µM | < 0.0489 µM | > 100 µM | > 100 µM | > 100 µM | > 100 µM | > 100 µM | 0.222 µM | > 100 µM | > 100 µM | > 100 µM | 0.00235 µM | > 100 µM | > 100 µM | > 100 µM | – | > 100 µM | > 100 µM | > 100 µM
O=C1/C(=C/c2cccnc2)SC(=S)N1Cc1ccco1 | – | 70.6 µM | – | > 100 µM | – | > 42.3 µM | – | > 48 µM | – | > 100 µM | – | > 43.5 µM | – | > 100 µM | – | 5.54 µM | – | 4.1 µM | – | 10.8 µM
N#CCc1c(F)c(F)c(F)c(F)c1F | – | > 100 µM | – | > 100 µM | – | > 100 µM | – | > 100 µM | – | > 100 µM | – | > 100 µM | – | > 100 µM | – | > 100 µM | – | > 100 µM | – | > 100 µM
